These results are taken from publication PMC8151835, “Phosphinotripeptidic Inhibitors of Leucylaminopeptidases” (International Journal of Molecular Sciences, 2021).

Data set [1] has as its target T1, SsLAP (porcine leucine aminopeptidase) (Sus scrofa, UniProt P28839).
T1 construct: Leucyl aminopeptidase (SsLAP) was isolated from the porcine kidney; from tissue; host or cells: porcine kidney
T1 sequence (P28839 1-519): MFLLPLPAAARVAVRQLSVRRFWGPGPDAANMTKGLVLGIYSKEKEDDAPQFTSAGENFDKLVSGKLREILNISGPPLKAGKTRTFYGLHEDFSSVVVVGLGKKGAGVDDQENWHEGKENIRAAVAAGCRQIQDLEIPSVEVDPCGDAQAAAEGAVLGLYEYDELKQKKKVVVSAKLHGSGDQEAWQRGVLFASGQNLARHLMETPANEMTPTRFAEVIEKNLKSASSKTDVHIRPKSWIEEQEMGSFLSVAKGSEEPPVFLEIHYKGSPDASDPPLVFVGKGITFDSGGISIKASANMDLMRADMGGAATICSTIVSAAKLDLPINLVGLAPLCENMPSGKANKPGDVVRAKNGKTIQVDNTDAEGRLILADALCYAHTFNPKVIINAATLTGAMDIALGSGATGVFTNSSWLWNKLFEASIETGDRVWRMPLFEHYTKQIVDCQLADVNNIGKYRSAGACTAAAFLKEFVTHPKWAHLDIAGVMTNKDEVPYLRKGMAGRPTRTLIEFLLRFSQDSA
Put plainly: Inhibition of porcine kidney leucine aminopeptidase, L-Leu-p-nitroanilide hydrolysis, spectrophotometric at 405 nm. Type of data set: biochemical. The conditions noted are these: for Ki: Dixon method, substrate L-Leu-p-nitroanilide, 37 °C, pH 8.5, mixture of SR and SS isomers. Here is the method: (§1) The inhibition type, mechanism, and inhibition constants (Ki) were determined using graphical methods (see Figure 3 and Figure 4 and Tables S1 and S2). The inhibition type was determined by the Lineweaver-Burk plot based on the results of the inhibitory effect of the compounds on the hydrolytic activity of L-Leu-p-nitroanilide. […] It should be remembered that inhibitor activity was appointed for the racemic mixtures. All investigated compound 1–9 contains only S isomer in the P2 position, whereas in the P1 position, both R and S isomers were possible. Comparing the obtained activities of the investigated compounds 1–9 toward mammalian and plant aminopeptidases allows us to make some general observations. […] Additionally, SsLAP has better tolerance for the residue in the P1 position, whereas HvLAP prefers hPhe residue in this position.
Leucyl aminopeptidase (SsLAP) was isolated from the porcine kidney modified method described by Spackman and Ledeme. […] KM values correlate well with those given in the works 0.77 mM [58, 59]. The purity of the enzyme was confirmed by electrophoresis.
The enzymatic reaction in the presence of SsLAP was carried out at 37 °C in 7.5 mM TEA-HCl buffer (pH 8.5), containing 5 mM NaCl. The progress of the reaction was monitored spectrophotometrically (UV-VIS Spectrophotometer Cintra 303, GBC Scientific Equipment Ltd., Victoria, Australia) at a wavelength of 405 nm against a control sample containing no enzyme. The attempting mixture contained: Solution of the synthetic substrate L-Leu-p-nitroanilide in DMSO (substrate concentration: 1.5 to 0.2 mM—final concentration), 7.5 mM TEA-HCl buffer (pH 8.5), containing 5 mM NaCl, the solution of the potential inhibitor in reaction buffer (concentration of compound depending on the braking force), and enzyme (0.005 mg of the sample).
(§2) Kinetic constants KM, Vmax, and KI and type of inhibition was determined by methods Lineweaver-Burk, Dixon, Hanes-Woolf, and method half-inhibitory concentration. In the calculation, linearization methods used weighted regression. The values (Ki) given in the tables are the values calculated by the Dixon method. The Ki values calculated with all the above-mentioned methods close to each other. All measurements were made in three-fold repetitions. The graphs show the average values of the three measurements and Sb.

For data set [2], the target named is HvLAP (aminopeptidase from barley seeds). Put plainly: Inhibition of barley seed aminopeptidase, L-Leu-p-nitroanilide hydrolysis, spectrophotometric at 405 nm. The data set is classed as biochemical, Hordeum vulgare. The note with it: Dixon method; substrate L-Leu-p-nitroanilide; 37 °C, pH 7.5; mixture of SR and SS isomers. Here is the method: as §1
The aminopeptidase from barley seeds (HvLAP) was isolated and purified according to the procedure described by Oszywa. […] The purity of the enzyme was confirmed by electrophoresis.
The enzymatic reaction in the presence of aminopeptidase from barley seeds (HvLAP) was carried out at 37 °C in 50 mM Tris-HCl buffer (pH 7.5), containing 50 mM NaCl, and 10 mM 2-mercaptoethanol. The progress of the reaction was monitored spectrophotometrically (UV-VIS Spectrophotometer Cintra 303, GBC Scientific Equipment Ltd., Victoria, Australia) at a wavelength of 405 nm against a control sample containing no enzyme. The attempting mixture contained: Solution of the synthetic substrate L-Leu-p-nitroanilide in DMSO (substrate concentration: 1.5 to 0.2 mM—final concentration), 50 mM Tris-HCl buffer (pH 7.5), containing 50 mM NaCl, and 10 mM 2-mercaptoethanol, the solution of the potential inhibitor in reaction buffer (concentration of compound depending on the braking force), and enzyme (0.028 mg of the sample).
as §2

Data set [3] has as its system HvLAP (aminopeptidase from barley seeds). Also on record: method as in PMID 23434924, doi:10.1007/s11738-015-1789-8. The note with it: read-out: KM of the isolated enzyme on the synthetic substrate; cited from earlier work.
Data set [4] has as its target T1, SsLAP (porcine leucine aminopeptidase). Also on record: method as in PMID 2568128, PMID 7126535. The conditions noted are these: read-out: KM given in the works; cited from earlier work.

Like-named read-outs stand apart in the source and are kept apart here.

As a reminder, the melting point is the temperature, or range, at which the solid turns liquid. Broadly, the Ki is a measure of affinity in units of concentration, obtained from inhibition or displacement. The term Km denotes the concentration of substrate that gives half-maximal velocity.

Compound `COC(=O)CCP(=O)(O)C(CCc1ccccc1)NC(=O)[C@@H](N)CCSC` (stereo partly drawn) [Compound 1, Methyl 3-[(1-((S)-2-amino-4-(methylthio)butanamido)-3-phenylpropyl)phosphinyl]propanoate] displayed a melting point of 161 to 164 °C. Further, the Ki in data set [1] amounted to 532 ± 46 µM. The Ki in data set [2] was 38 ± 9 µM.

`COC(=O)CCP(=O)(O)C(CC(C)C)NC(=O)[C@@H](N)CCSC` (stereo partly drawn) [Compound 2, Methyl 3-[(1-((S)-2-amino-4-(methylthio)butanamido)-3-methylbutyl)phosphinyl]propanoate] showed a melting point of 183 to 184 °C. In data set [1], the Ki came out at 1090 ± 73 µM. For the same compound, the Ki in data set [2] was found to be 649 ± 43 µM.

The compound `COC(=O)CCP(=O)(O)C(CC(C)C)NC(=O)[C@@H](N)CCO` (stereo partly shown) [Compound 3] registered a melting point of 174 to 176 °C. Further, in data set [1], the Ki was 14 ± 1 µM. In data set [2], the Ki was determined as 121 ± 19 µM.

For the compound `CSCC[C@H](N)C(=O)NC(CCc1ccccc1)P(=O)(O)CCC(=O)O` (stereo partly shown) [Compound 4], the melting point was 180 to 185 °C. Besides, the Ki in data set [1] is 229 ± 40 µM. The Ki in data set [2] is 228 ± 10 µM.

`CSCC[C@H](N)C(=O)NC(CC(C)C)P(=O)(O)CCC(=O)O` (stereo partly drawn) [Compound 5, 3-[(1-((S)-2-Amino-4-(methylthio)butanamido)-3-methylbutyl)phosphinyl]propanoic acid] registered a melting point of 218 to 222 °C. The inhibition constant (Ki) in data set [1] was found to be 3620 ± 433 µM. The Ki in data set [2] was found to be 1040 ± 102 µM.

For `COC(=O)CCP(=O)(O)C(CCc1ccccc1)NC(=O)[C@@H](N)Cc1ccc(-c2ccccc2)cc1` (stereo partly drawn) [Compound 6, Methyl 3-[(1-((S)-3-([1,1′-biphenyl]-4-yl)-2-aminopropanamido)-3-phenylpropyl)phosphinyl]-propanoate], the melting point lay in the range of 126 to 128 °C. Moreover, the Ki in data set [1] stood at 175 ± 3 µM. Besides, the Ki in data set [2] amounted to 878 ± 70 µM.

With `COC(=O)CCP(=O)(O)C(CC(C)C)NC(=O)[C@@H](N)Cc1ccc(-c2ccccc2)cc1` (stereo partly shown) [Compound 7], the melting point was in the range of 150 to 152 °C. In addition, the Ki in data set [1] amounted to 130 ± 14 µM. For the same compound, in data set [1] (SsLAP over HvLAP), the “inhibits SsLAP stronger than HvLAP (selectivity)” value is on record as about 10 times. In addition, in data set [2], the Ki was 1300 ± 84 µM.

For `COC(=O)CCP(=O)(O)C(CCc1ccccc1)NC(=O)[C@@H](N)Cc1ccc(C(=O)c2ccccc2)cc1` (stereo partly drawn) [Compound 8, Methyl 3-[(1-((S)-2-amino-3-(4-benzoylphenyl)propanamido)-3-phenylpropyl)phosphinyl]-propanoate], the melting point is 134 to 140 °C (dec.). For the same compound, the Ki in data set [1] came to 95 ± 9 µM. Moreover, in data set [2], the inhibition constant (Ki) worked out at 159 ± 25 µM.

For `COC(=O)CCP(=O)(O)C(CC(C)C)NC(=O)[C@@H](N)Cc1ccc(C(=O)c2ccccc2)cc1` (stereo partly drawn) [Compound 9, Methyl 3-[(1-((S)-2-amino-3-(4-benzoylphenyl)propanamido)-3-methylbutyl)phosphinyl]-propanoate], the melting point is 124 to 126 °C. Also, the inhibition constant (Ki) in data set [1] is 507 ± 31 µM. Moreover, the Ki in data set [2] came to 797 ± 76 µM.

Turning to `CC(C)C[C@H](N)C(=O)Nc1ccc([N+](=O)[O-])cc1` [L-Leu-pNA, L-leucine-p-nitroanilide], the Km is 550 µM in data set [3]; 860 µM in data set [1] (SsLAP isolated from porcine kidney, read-out: KM of the isolated enzyme on the synthetic substrate); 770 µM in data set [4].
